What was measured:
Assay type in all cases: binding
[1] = target: T1, kinases (KINOMEscan panel) (Homo sapiens, UniProt P30530); conditions: AXL; NEW KINOMEscan
T1 sequence (P30530 26-894): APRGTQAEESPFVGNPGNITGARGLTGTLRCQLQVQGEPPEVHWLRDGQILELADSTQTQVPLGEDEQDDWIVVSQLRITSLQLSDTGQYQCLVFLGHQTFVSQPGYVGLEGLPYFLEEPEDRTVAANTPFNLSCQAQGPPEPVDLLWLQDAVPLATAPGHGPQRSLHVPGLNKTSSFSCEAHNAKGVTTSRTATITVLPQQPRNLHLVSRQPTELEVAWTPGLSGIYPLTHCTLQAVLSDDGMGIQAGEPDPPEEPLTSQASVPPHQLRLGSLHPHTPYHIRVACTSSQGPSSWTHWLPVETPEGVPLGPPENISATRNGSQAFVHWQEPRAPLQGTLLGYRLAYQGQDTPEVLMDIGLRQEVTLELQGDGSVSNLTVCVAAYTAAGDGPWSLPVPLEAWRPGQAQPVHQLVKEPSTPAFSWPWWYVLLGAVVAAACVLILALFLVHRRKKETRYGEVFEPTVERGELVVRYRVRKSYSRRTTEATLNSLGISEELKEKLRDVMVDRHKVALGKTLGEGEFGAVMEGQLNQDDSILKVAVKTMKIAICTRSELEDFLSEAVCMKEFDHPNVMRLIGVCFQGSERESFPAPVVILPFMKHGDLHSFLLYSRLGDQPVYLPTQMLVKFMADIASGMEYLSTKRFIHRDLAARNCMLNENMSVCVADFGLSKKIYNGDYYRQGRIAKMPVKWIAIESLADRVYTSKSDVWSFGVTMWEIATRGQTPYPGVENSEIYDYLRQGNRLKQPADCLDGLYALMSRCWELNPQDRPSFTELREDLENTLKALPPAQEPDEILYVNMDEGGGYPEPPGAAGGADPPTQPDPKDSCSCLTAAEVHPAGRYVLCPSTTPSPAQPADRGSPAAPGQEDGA

[2] = target: kinases (KINOMEscan panel) (Homo sapiens, UniProt Q96J92); conditions: WNK4; NEW KINOMEscan
Sequence of kinases (KINOMEscan panel) (Homo sapiens, UniProt Q96J92) (Q96J92 whole entry): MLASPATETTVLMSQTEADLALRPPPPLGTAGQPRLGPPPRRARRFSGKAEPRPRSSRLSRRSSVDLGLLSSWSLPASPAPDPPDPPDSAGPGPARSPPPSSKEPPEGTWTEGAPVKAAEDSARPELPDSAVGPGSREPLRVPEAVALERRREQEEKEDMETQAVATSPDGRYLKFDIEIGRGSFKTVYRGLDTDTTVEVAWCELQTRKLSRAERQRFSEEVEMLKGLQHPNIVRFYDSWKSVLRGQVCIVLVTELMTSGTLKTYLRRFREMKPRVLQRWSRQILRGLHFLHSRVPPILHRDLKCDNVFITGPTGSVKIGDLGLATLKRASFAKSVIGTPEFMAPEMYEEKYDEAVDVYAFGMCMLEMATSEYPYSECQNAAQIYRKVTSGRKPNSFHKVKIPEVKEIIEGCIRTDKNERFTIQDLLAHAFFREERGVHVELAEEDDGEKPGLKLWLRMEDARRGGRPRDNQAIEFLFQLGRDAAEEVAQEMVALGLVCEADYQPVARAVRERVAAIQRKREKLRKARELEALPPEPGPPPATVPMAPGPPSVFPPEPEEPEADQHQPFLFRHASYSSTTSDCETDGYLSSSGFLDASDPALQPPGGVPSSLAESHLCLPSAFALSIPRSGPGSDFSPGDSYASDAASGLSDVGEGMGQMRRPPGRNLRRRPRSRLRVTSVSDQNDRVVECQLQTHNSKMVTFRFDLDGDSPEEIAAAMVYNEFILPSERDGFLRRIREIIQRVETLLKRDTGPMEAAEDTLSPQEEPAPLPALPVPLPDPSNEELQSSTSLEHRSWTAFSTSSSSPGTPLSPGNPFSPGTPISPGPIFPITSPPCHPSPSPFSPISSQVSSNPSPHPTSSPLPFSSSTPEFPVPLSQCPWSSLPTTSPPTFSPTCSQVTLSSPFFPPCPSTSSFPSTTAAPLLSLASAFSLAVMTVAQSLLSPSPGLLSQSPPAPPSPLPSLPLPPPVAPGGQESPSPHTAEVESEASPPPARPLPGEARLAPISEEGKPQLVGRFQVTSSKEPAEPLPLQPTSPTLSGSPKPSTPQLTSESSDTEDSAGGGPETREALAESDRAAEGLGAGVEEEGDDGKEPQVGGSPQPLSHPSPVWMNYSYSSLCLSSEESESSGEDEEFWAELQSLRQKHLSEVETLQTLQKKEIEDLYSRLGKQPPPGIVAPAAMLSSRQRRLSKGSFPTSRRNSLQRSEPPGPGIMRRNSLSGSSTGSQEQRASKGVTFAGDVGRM

[3] = target: kinases (KINOMEscan panel) (Homo sapiens, UniProt Q86UE8); conditions: kinase TLK2; NEW KINOMEscan
[4] = target: kinases (KINOMEscan panel) (Homo sapiens, UniProt P49760); conditions: kinase CLK2; NEW KINOMEscan
[5] = target: kinases (KINOMEscan panel) (Homo sapiens, UniProt P53778)
Sequence of kinases (KINOMEscan panel) (Homo sapiens, UniProt P53778) (P53778 whole entry): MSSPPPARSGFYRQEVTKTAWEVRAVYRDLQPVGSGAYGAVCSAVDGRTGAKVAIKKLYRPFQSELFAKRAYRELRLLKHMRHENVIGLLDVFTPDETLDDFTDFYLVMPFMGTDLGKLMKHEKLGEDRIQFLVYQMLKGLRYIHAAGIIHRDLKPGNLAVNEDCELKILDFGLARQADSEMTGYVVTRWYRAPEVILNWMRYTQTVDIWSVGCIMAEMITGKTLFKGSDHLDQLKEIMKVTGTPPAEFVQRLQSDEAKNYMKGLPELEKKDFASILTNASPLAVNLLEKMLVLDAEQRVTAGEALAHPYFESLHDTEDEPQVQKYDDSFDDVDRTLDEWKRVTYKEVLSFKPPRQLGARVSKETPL

[6] = target: kinases (KINOMEscan panel) (Homo sapiens, UniProt P42336, H1047Y); conditions: kinase PIK3CA(H1047Y); NEW KINOMEscan
Sequence of kinases (KINOMEscan panel) (Homo sapiens, UniProt P42336, H1047Y) (P42336 whole entry H1047Y): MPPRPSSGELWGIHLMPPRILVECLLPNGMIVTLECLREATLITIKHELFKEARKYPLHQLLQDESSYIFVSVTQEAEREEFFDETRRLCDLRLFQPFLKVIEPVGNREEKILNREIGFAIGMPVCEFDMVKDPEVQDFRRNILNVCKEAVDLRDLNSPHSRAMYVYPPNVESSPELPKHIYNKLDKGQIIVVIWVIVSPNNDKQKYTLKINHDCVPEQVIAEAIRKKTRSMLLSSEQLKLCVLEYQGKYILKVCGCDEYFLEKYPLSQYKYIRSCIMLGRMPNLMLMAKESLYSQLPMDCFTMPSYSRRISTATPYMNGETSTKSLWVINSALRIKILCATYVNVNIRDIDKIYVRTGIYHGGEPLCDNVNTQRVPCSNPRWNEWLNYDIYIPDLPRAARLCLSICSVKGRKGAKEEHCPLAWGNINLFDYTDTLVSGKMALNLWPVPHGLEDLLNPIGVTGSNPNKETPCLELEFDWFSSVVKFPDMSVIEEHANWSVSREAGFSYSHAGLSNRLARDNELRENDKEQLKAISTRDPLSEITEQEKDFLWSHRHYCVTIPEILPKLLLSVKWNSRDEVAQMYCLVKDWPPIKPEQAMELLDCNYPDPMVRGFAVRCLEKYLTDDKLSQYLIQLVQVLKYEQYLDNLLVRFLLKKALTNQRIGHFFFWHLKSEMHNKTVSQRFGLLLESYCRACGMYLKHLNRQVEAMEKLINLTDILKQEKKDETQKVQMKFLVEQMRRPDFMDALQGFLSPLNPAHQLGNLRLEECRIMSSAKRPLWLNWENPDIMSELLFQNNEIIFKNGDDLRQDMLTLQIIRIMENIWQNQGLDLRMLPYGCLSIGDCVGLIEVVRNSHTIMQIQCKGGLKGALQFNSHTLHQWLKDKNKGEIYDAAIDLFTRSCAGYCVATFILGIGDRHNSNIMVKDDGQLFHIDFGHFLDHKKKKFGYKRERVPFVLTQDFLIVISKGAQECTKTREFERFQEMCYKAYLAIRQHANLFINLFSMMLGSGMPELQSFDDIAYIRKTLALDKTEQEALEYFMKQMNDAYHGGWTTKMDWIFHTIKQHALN

[7] = target: kinases (KINOMEscan panel) (Homo sapiens, UniProt O15264)
Sequence of kinases (KINOMEscan panel) (Homo sapiens, UniProt O15264) (O15264 whole entry): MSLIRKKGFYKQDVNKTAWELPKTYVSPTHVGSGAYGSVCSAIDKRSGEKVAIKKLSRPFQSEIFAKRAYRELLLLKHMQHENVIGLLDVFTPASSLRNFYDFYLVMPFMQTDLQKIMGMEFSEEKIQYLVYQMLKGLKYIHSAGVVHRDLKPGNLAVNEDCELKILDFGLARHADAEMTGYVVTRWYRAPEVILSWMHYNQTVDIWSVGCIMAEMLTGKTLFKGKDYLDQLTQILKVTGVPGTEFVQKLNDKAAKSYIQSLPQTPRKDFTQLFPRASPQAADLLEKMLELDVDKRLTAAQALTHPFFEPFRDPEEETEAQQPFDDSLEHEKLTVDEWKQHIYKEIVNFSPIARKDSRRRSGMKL

[8] = target: kinases (KINOMEscan panel) (Homo sapiens, UniProt P49840); conditions: GSK3A; NEW KINOMEscan
[9] = target: T2, kinases (KINOMEscan panel) (Homo sapiens, UniProt Q9HBY8); conditions: NEW KINOMEscan
T2 sequence (Q9HBY8 1-367): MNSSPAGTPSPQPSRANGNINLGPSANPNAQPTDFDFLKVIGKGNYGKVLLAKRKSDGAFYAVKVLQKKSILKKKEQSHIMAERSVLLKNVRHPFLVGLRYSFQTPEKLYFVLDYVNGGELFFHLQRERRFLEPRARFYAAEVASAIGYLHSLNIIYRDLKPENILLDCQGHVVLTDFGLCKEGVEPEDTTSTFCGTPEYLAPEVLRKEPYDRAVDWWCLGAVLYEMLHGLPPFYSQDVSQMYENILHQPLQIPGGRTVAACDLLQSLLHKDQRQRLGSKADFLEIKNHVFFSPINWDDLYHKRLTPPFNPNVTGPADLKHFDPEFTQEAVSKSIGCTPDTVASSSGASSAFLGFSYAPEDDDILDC

[10] = target: T3, kinases (KINOMEscan panel) (Homo sapiens, UniProt Q99640); conditions: kinase PKMYT1; NEW KINOMEscan
T3 sequence (Q99640 1-499): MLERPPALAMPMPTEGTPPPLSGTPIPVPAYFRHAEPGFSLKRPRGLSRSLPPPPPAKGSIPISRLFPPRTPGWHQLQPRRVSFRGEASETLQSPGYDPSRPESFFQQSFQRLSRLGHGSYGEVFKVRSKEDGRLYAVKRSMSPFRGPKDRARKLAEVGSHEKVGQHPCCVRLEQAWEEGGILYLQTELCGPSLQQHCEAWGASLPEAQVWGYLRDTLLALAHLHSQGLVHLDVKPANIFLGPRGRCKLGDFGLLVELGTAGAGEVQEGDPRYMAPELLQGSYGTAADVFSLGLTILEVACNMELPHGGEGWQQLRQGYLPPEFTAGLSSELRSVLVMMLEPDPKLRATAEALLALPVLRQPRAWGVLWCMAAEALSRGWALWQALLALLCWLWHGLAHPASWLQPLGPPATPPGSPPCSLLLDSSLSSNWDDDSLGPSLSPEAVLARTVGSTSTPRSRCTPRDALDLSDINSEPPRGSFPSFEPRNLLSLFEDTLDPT

[11] = target: kinases (KINOMEscan panel) (Homo sapiens, UniProt Q9BX84); conditions: TRPM6; NEW KINOMEscan
Sequence of kinases (KINOMEscan panel) (Homo sapiens, UniProt Q9BX84) (Q9BX84 whole entry): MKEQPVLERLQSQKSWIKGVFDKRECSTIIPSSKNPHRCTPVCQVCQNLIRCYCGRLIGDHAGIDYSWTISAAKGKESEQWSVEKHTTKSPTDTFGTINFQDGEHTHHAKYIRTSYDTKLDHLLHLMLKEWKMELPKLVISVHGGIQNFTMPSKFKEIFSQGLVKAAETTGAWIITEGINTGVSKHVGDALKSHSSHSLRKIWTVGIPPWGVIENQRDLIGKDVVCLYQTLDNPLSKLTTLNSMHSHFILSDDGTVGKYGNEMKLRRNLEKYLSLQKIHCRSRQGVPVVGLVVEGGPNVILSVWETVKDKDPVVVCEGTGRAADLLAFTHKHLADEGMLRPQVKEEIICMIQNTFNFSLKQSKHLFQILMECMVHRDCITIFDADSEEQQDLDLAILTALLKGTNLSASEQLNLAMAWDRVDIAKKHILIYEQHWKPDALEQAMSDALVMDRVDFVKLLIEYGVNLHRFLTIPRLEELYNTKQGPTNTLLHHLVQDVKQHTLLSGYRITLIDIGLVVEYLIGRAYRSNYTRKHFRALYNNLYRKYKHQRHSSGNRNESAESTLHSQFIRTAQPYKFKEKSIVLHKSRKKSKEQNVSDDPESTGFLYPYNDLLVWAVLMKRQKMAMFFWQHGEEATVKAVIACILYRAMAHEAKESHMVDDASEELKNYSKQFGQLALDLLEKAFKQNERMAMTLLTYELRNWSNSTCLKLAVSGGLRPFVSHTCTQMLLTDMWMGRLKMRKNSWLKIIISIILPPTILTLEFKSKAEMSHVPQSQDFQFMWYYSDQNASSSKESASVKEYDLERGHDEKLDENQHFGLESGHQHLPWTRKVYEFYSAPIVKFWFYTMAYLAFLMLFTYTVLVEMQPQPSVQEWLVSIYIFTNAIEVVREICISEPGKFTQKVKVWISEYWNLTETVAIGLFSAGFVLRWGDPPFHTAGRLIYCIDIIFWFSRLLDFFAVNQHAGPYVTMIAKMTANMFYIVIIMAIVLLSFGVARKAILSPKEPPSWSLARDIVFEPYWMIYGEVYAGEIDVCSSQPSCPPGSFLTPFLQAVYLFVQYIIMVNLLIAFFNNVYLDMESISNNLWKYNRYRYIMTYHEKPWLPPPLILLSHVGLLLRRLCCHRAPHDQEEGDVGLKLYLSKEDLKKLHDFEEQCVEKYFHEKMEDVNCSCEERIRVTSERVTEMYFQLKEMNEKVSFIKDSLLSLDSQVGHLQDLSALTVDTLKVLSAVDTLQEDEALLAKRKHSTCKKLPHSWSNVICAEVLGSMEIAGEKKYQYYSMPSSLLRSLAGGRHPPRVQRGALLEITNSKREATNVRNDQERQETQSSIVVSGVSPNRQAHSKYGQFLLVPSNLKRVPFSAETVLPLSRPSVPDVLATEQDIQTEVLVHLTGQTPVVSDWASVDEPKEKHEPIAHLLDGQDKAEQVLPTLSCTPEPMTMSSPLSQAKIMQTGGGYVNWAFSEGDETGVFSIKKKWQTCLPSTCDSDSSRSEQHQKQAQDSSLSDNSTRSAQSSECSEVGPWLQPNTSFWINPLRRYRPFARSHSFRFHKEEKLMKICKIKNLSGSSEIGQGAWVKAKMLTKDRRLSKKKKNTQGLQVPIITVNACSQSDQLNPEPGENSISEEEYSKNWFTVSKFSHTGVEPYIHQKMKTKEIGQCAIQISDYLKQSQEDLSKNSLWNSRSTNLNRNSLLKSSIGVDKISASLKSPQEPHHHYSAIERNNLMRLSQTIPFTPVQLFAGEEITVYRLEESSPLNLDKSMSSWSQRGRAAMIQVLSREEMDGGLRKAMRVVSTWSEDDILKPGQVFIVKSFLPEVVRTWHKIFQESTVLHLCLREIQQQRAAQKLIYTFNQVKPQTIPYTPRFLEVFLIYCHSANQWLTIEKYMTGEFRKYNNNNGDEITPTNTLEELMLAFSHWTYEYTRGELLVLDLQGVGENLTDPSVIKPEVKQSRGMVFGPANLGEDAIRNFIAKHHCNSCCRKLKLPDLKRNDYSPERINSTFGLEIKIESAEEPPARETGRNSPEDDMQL

SMILES | KINOMEscan AXL [1] | KINOMEscan WNK4 [2] | KINOMEscan TLK2 [3] | KINOMEscan CLK2 [4] | KINOMEscan MAPK12/p38-gamma [5] | KINOMEscan PIK3CA(H1047Y) [6] | KINOMEscan MAPK13/p38-delta [7] | KINOMEscan GSK3A [8] | KINOMEscan SGK2 [9] | KINOMEscan PKMYT1 [10] | KINOMEscan TRPM6 [11]
Cc1cccc(-c2nc(Nc3ccc4nn(C)cc4c3)c3ccccc3n2)n1 [NK167] | 0 | 0 | 0 | 0 | 43 | 0 | 0 | 0 | 0 | 0 | 0
Cc1cccc(-c2nc(N(C)c3ccc4ncsc4c3)c3ccccc3n2)n1 [NK-161] | 0 | 0 | 0 | 0 | 27 | 4 | 6 | 0 | 15 | 0 | 0

— publication PMC9851200, “Multiparameter phenotypic screening for endogenous TFEB and TFE3 translocation identifies novel chemical series modulating lysosome function” (Autophagy, 2022)
